Tests used:
[1] = target: T1, human α1G T-type channels (Homo sapiens, UniProt O43497); assay: T-type calcium channel block, whole cell patch clamp in HEK cells (α1G); format: cell-based; conditions: HEK cells, patch clamp, mainly non-inactivated protocol; values above 10 μM shown as 10 μM, below 0.30 μM shown as 0.30 μM; read-out: T-type Calcium Channel Block α1G IC50
T1 construct: expressed in transfected cells; host or cells: HEK 293

[2] = target: T2, human α1H T-type channels (Homo sapiens, UniProt O95180); assay: T-type calcium channel block, whole cell patch clamp in HEK cells (α1H); format: cell-based; conditions: HEK cells, patch clamp, mainly non-inactivated protocol; values above 10 μM shown as 10 μM; read-out: T-type Calcium Channel Block α1H IC50
T2 construct: expressed in transfected cells; host or cells: HEK 293
T2 sequence (O95180 whole entry): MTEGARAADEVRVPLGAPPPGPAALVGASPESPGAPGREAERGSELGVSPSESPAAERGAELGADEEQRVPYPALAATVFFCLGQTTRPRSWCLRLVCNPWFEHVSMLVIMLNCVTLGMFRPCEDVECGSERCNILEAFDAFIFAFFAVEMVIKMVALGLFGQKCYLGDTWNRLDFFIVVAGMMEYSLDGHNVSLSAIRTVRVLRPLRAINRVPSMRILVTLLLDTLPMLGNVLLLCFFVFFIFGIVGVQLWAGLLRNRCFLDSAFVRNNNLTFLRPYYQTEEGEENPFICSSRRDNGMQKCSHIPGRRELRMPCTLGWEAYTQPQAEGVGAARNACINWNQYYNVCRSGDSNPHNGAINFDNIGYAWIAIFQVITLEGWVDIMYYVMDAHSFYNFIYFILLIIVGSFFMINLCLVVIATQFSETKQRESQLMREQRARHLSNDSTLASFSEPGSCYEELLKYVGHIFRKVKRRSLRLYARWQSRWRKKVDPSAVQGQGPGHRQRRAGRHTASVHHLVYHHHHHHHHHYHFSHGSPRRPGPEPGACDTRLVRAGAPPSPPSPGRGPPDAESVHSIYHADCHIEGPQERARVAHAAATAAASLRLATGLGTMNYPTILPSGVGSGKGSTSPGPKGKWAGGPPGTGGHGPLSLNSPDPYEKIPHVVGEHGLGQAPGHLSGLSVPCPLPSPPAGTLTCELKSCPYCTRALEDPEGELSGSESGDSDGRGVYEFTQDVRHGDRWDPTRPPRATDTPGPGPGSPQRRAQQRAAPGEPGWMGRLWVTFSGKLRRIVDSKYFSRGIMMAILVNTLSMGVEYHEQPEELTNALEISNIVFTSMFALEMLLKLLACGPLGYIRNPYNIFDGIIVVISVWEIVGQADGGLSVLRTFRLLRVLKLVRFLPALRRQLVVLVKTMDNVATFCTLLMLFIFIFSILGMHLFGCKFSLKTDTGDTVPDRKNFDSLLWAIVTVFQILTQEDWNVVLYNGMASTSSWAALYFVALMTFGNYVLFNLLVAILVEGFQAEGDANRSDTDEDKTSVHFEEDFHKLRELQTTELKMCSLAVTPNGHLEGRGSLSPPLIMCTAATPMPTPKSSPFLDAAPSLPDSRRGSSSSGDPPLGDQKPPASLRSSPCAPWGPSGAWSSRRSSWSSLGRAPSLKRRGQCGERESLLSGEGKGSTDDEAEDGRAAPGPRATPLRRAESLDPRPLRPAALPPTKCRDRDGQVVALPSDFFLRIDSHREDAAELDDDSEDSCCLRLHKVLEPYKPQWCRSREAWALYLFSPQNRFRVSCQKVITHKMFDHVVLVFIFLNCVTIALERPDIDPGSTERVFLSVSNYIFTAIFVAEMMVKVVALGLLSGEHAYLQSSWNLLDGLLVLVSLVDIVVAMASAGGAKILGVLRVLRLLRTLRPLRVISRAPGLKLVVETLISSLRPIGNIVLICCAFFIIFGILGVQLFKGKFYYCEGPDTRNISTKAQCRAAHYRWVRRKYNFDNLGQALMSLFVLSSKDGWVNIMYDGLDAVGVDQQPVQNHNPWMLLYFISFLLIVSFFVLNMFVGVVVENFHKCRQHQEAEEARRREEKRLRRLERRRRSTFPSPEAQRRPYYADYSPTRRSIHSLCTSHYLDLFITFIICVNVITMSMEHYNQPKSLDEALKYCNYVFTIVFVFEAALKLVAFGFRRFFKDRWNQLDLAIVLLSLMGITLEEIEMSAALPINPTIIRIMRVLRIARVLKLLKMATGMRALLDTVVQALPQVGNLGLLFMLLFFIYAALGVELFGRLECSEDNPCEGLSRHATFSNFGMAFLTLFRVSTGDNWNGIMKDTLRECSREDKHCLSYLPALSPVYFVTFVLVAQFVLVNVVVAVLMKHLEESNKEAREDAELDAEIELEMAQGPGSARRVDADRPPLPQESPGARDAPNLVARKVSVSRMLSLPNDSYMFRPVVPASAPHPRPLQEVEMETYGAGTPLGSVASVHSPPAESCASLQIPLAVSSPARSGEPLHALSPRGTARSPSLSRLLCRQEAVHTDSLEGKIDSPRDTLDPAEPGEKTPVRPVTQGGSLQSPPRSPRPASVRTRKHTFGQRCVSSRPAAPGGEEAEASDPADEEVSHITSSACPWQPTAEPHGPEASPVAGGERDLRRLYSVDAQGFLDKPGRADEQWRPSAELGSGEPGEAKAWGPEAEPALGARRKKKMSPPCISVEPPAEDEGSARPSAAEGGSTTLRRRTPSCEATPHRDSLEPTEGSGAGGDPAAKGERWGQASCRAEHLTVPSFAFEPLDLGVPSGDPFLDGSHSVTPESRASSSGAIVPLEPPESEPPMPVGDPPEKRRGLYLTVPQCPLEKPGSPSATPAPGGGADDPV

T1 sequence (O43497 whole entry): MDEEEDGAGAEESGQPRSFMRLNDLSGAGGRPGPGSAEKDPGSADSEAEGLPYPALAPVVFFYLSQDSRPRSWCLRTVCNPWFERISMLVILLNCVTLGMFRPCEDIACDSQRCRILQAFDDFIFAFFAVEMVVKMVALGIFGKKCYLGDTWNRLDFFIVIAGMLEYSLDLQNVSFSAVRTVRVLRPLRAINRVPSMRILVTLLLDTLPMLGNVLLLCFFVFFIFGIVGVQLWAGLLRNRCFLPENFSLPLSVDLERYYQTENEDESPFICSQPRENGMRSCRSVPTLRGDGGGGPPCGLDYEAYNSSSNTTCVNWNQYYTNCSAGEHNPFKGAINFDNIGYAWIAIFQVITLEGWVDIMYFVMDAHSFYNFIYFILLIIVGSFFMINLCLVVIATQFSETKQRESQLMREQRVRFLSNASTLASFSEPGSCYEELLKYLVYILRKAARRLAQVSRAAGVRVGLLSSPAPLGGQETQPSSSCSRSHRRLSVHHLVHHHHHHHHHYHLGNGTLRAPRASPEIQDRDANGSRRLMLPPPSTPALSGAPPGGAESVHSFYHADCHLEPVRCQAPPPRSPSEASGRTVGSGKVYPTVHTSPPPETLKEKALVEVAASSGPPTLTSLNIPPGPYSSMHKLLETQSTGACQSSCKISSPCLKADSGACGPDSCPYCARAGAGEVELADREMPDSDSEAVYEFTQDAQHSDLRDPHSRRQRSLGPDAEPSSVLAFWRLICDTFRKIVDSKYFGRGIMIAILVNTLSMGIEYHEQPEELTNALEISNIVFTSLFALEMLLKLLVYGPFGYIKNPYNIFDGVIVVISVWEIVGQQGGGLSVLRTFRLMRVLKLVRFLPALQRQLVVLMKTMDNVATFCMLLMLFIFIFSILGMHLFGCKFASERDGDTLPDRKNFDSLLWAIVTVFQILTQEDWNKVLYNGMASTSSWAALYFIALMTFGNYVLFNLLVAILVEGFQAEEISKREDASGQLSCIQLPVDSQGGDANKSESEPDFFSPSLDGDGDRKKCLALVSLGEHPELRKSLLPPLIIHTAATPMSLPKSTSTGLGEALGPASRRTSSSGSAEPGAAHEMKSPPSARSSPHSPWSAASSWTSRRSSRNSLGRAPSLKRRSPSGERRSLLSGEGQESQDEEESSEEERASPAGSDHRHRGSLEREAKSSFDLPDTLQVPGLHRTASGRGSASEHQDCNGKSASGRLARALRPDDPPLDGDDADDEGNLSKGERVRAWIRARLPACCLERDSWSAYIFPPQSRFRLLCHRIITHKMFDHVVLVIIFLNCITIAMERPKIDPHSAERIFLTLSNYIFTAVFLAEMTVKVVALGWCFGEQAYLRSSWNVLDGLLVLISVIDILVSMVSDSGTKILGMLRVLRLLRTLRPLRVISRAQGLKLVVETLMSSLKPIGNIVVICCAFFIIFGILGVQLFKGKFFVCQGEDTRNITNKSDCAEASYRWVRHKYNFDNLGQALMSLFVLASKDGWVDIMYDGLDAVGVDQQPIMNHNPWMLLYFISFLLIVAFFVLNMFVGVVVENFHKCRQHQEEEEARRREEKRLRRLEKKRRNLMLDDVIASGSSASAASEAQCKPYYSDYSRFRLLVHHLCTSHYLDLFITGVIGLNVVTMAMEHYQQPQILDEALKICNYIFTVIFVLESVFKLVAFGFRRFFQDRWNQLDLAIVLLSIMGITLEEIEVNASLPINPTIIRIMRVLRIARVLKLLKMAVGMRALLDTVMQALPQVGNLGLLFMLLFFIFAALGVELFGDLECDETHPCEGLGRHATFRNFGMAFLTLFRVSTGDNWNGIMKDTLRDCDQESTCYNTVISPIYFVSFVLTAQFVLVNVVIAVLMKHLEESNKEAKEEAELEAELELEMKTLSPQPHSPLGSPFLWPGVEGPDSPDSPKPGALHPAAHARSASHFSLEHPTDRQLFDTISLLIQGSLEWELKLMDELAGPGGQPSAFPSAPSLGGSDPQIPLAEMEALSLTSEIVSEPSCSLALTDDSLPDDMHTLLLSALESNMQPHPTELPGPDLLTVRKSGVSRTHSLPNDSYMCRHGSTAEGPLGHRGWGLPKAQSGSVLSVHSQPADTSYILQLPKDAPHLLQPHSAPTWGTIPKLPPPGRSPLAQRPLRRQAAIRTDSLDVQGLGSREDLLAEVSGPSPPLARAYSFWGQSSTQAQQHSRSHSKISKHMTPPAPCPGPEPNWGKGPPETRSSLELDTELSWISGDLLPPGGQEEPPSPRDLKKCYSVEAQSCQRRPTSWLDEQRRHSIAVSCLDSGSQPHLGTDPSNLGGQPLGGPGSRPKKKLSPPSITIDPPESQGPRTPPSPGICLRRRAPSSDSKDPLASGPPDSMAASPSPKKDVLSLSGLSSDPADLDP

| IC50 [1] [µM] | IC50 [2] [µM] | SMILES |
| --- | --- | --- |
| 1.36 | 0.89 | O=C(NCC1CCN(CCN2C(=O)NC3(CCCCC3)C2=O)CC1)c1cc(F)cc(C(F)(F)F)c1 [Compound 568, N-((1-(2-(2,4-dioxo-1,3-diazaspiro[4.5]decan-3-yl)ethyl)piperidin-4-yl)methyl)-3-fluoro-5-(trifluoromethyl)benzamide] |
| 4.24 | 7.92 | CCCNC(=O)CN1CCC(CNC(=O)c2cc(F)cc(Cl)c2)CC1 [Compound 452, 3-chloro-5-fluoro-N-((1-(2-oxo-2-(propylamino)ethyl)piperidin-4-yl)methyl)benzamide] |
| > 10 | 3.59 | CC(C)(C(=O)NCCN1CCC(CNC(=O)c2cc(C(F)(F)F)cc(S(C)(=O)=O)c2)CC1)C(F)(F)F [Compound 587, 3-(methylsulfonyl)-N-((1-(2-(3,3,3-trifluoro-2,2-dimethyl-propanamido)ethyl)piperidin-4-yl)methyl)-5-(trifluoromethyl) benzamide] |
| 1.68 | 0.51 | Cc1cc(C)cc(C(=O)NCC2CCN(CC(=O)N(C)C(C)(C)C)CC2)c1 [Compound 539, N-((1-(2-(tert-butyl(methyl)amino)-2-oxoethyl)piperidin-4-yl)methyl)-3,5-dimethylbenzamide] |
| < 0.3 | 0.45 | CCOc1cc(OCC)cc(C(=O)NCC2CCN(CC(=O)NC(C)(C)C)CC2)c1 [Compound 377, N-((1-(2-(tert-butylamino)-2-oxoethyl)piperidin-4-yl)methyl)-3,5-diethoxybenzamide] |
| 0.99 | 0.72 | O=C(NCC1CCN(CCNS(=O)(=O)C2CC2)CC1)c1ccc(C(F)(F)F)c(F)c1 [Compound 387, N-((1-(2-(cyclopropanesulfonamido)ethyl)piperidin-4-yl)methyl)-3-fluoro-4-(trifluoromethyl)benzamide] |
| > 10 | > 10 | CC(C)(C)NC(=O)CN1CCC(CNC(=O)c2ccnc(N3CCCC3)c2)CC1 [Compound 373, N-((1-(2-(tert-butylamino)-2-oxoethyl)piperidin-4-yl)methyl)-2-(pyrrolidin-1-yl)isonicotinamide] |
| > 10 | 3.24 | CCCNC(=O)N(C)CCN1CCC(CNC(=O)c2cc(F)cc(C(F)(F)F)c2)CC1 [Compound 526, 3-fluoro-N-((1-(2-(1-methyl-3-propylureido)ethyl)piperidin-4-yl)methyl)-5-(trifluoromethyl)benzamide] |
| 0.77 | 0.58 | COc1cc(F)cc(C(=O)NCC2CCN(CC(=O)N3CCC[C@@H]3C(F)(F)F)CC2)c1 [Compound 505, (R)-3-fluoro-5-methoxy-N-((1-(2-oxo-2-(2-(trifluoromethyl)pyrrolidin-1-yl)ethyl)piperidin-4-yl)methyl) benzamide] |
| 3.91 | 1.71 | COc1cc(F)cc(C(=O)NCC2CCN(CC(=O)NC(C)C)CC2)c1 [Compound 438, 3-fluoro-N-((1-(2-(isopropylamino)-2-oxoethyl)piperidin-4-yl)methyl)-5-methoxybenzamide] |

The remaining lines, values behind:

| SMILES | IC50 [1] [µM] | IC50 [2] [µM] |
| --- | --- | --- |
| CC(C)(C)C(=O)NCCN1CCC(CNC(=O)c2cc(F)cc(F)c2)CC1 [Compound 293, 3,5-difluoro-N-((1-(2-pivalamidoethyl)piperidin-4-yl)methyl)benzamide] | 5.18 | 4.07 |
| CC(C)(C)C(=O)NCCN1CCC(CNC(=O)c2cccc(C(F)(F)F)c2)CC1 [Compound 296, N-((1-(2-pivalamidoethyl)piperidin-4-yl)methyl)-3-(trifluoromethyl)benzamide] | 0.61 | 1.1 |
| CC(C)(C)NCC(=O)N1CCC(CNC(=O)c2cc(F)cc(C(F)(F)F)c2)CC1 [Compound 265, N-((1-(2-(tert-butylamino)acetyl)piperidin-4-yl)methyl)-3-fluoro-5-(trifluoromethyl)benzamide] | 2.06 | 3.76 |
| O=C(NCC1CCN(C(=O)CNCCCN2CCOCC2)CC1)c1cc(C(F)(F)F)cc(C(F)(F)F)c1 [Compound 244, N-((1-(2-(3-morpholinopropylamino)acetyl)piperidin-4-yl)methyl)-3,5-bis(trifluoromethyl)benzamide] | 7.19 | > 10 |
| Cc1cc(F)cc(C(=O)NCC2CCN(CCNS(=O)(=O)C(F)(F)F)CC2)c1 [Compound 331, 3-fluoro-5-methyl-N-((1-(2-(trifluoromethylsulfonamido)ethyl)piperidin-4-yl)methyl)benzamide] | > 10 | > 10 |
| COc1cc(F)cc(C(=O)NCC2CCN(CCNS(=O)(=O)C(C)C)CC2)c1 [Compound 318, 3-fluoro-5-methoxy-N-((1-(2-(1-methylethylsulfonamido)ethyl)piperidin-4-yl)methyl)benzamide] | 0.5 | 0.87 |
| O=C(NCC1CCN(CCNS(=O)(=O)C2CC2)CC1)c1cccc(C(F)(F)F)c1 [Compound 228, N-((1-(2-(cyclopropanesulfonamido)ethyl)piperidin-4-yl)methyl)-3-(trifluoromethyl)benzamide] | 1.67 | 2.35 |
| O=C(NCC1CCN(C(=O)CNC2CCCCC2O)CC1)c1cc(F)cc(C(F)(F)F)c1 (stereo not shown) [Compound 275, 3-fluoro-N-((1-(2-(2-hydroxycyclohexylamino)acetyl)piperidin-4-yl)methyl)-5-(trifluoromethyl)benzamide] | 1.99 | > 10 |
| O=C(NCC1CCN(C(=O)CN2CCCC(C(F)(F)F)C2)CC1)c1cc(F)cc(C(F)(F)F)c1 (stereo not shown) [Compound 282, 3-fluoro-5-(trifluoromethyl)-N-((1-(2-(3-(trifluoromethyl)piperidin-1-yl)acetyl)piperidin-4-yl)methyl)benzamide] | 2.5 | 7.16 |
| O=C(NCC1CCN(CCNS(=O)(=O)C(F)(F)F)CC1)c1cc(F)cc(Cl)c1 [Compound 329, 3-chloro-5-fluoro-N-((1-(2-(trifluoromethylsulfonamido)ethyl)piperidin-4-yl)methyl)benzamide] | 3.24 | 4.05 |
| CCCNC(=O)NC1(CN2CCC(CNC(=O)c3cc(C(F)(F)F)cc(C(F)(F)F)c3)CC2)CCCC1 [Compound 13, N-((1-((1-(3-propylureido)cyclopentyl)methyl)piperidin-4-yl)methyl)-3,5-bis(trifluoromethyl)benzamide] | 0.63 | 1.87 |
| O=C(NCC1CCN(CCNS(=O)(=O)C2CC2)CC1)c1cc(Cl)sc1Cl [Compound 333, 2,5-dichloro-N-((1-(2-(cyclopropanesulfonamido)ethyl)piperidin-4-yl)methyl)thiophene-3-carboxamide] | 0.8 | 2.42 |
| O=C(NCC1CCN(CCNS(=O)(=O)C2CC2)CC1)c1ccc(OC(F)(F)F)cc1 [Compound 232, N-((1-(2-(cyclopropanesulfonamido)ethyl)piperidin-4-yl)methyl)-4-(trifluoromethoxy)benzamide] | 5.01 | 2.87 |
| C[C@H]1CC[C@H](NCC(=O)N2CCC(CNC(=O)c3cc(F)cc(C(F)(F)F)c3)CC2)CC1 [Compound 291, 3-fluoro-N-((1-(2-((1r,4r)-4-methylcyclohexylamino)acetyl)piperidin-4-yl)methyl)-5-(trifluoromethyl)benzamide] | < 0.3 | 0.51 |
| CC(C)(C)C(=O)NCCN1CCC(CNC(=O)c2cc(Br)cc(C(F)(F)F)c2)CC1 [Compound 302, 3-bromo-N-((1-(2-pivalamidoethyl)piperidin-4-yl)methyl)-5-(trifluoromethyl)benzamide] | < 0.3 | 0.3 |
| CCCCCNCC(=O)N1CCC(CNC(=O)c2cc(C(F)(F)F)cc(C(F)(F)F)c2)CC1 [Compound 241, N-((1-(2-(pentylamino)acetyl)piperidin-4-yl)methyl)-3,5-bis(trifluoromethyl)benzamide] | < 0.3 | 0.52 |
| CC(C)S(=O)(=O)NC(CN1CCC(CC(=O)NC(c2cccc(F)c2)c2cccc(F)c2)CC1)C(C)(C)C (stereo not shown) [Compound 222, N-(bis(3-fluorophenyl)methyl)-2-(1-(3,3-dimethyl-2-(1-methylethylsulfonamido)butyl)piperidin-4-yl)acetamide] | 2.03 | > 10 |
| CC1CCCCC1NCC(=O)N1CCC(CNC(=O)c2cc(F)cc(C(F)(F)F)c2)CC1 (stereo not shown) [Compound 274, 3-fluoro-N-((1-(2-(2-methylcyclohexylamino)acetyl)piperidin-4-yl)methyl)-5-(trifluoromethyl)benzamide] | < 0.3 | 0.66 |
| O=C(NCC1CCN(C(=O)[C@@H]2CCCCN2)CC1)c1cc(C(F)(F)F)cc(C(F)(F)F)c1 [Compound 88, (S)-N-((1-(piperidine-2-carbonyl)piperidin-4-yl)methyl)-3,5-bis(trifluoromethyl)benzamide] | > 10 | > 10 |
| COc1cc(C(=O)NCC2CCN(CCNC(=O)CCC(F)(F)F)CC2)cc(C(F)(F)F)c1 [Compound 317, 3-methoxy-N-((1-(2-(4,4,4-trifluorobutanamido)ethyl)piperidin-4-yl)methyl)-5-(trifluoromethyl)benzamide] | 0.66 | 0.56 |
| CC(C)(F)C(=O)NCCN1CCC(CNC(=O)c2cc(C(F)(F)F)cc(C(F)(F)F)c2)CC1 [Compound 335, N-((1-(2-(2-fluoro-2-methylpropanamido)ethyl)piperidin-4-yl)methyl)-3,5-bis(trifluoromethyl) benzamide] | 0.33 | 0.31 |
| COC1CCN(CC(=O)N2CCC(CNC(=O)c3cc(C(F)(F)F)cc(C(F)(F)F)c3)CC2)CC1 [Compound 251, N-((1-(2-(4-methoxypiperidin-1-yl)acetyl)piperidin-4-yl)methyl)-3,5-bis(trifluoromethyl)benzamide] | > 10 | > 10 |

Source: US8569344B2, “N-piperidinyl acetamide derivatives as calcium channel blockers” (Zalicus Pharmaceuticals Ltd., priority 2008, dated 2013)
